This is an account of results in publication PMC11170759, “Advancing Parkinson’s Disease Diagnostics: The Potential of Arylpyrazolethiazole Derivatives for Imaging α-Synuclein Aggregates” (ACS Omega, 2024).

One data set concerns the target α-synuclein aggregates. Also noted: method as in PMID 34577548. The settings on record: literature ligands of Figure 1; read-out: Ki α-syn; cited from earlier work.
A further data set has as its target Aβ1-42. More on the design: method as in PMID 34577548. As to conditions: literature ligands of Figure 1; cited from earlier work.
The target in data set [1] is T1, synthetic human Aβ1–42 fibrils (Homo sapiens, UniProt P05067).
T1 construct: Synthetic lyophilized human Aβ1–42 peptide; purchased EMC Microcollections GmbH (Tuebingen, Germany); host or cells: chemical synthesis
As to the kind of experiment: In vitro competition binding assay against [3H]MODAG-001 on Aβ1–42 fibrils. As to conditions: for Ki: competition against 1 nM [3H]MODAG-001, Aβ1–42 fibrils 1 μM, mean Ki ± SEM. The method, then:
(§1) The APT library underwent in vitro testing to evaluate its binding affinity to human recombinant α-syn fibrils. Promising compounds were further tested on Aβ fibrils. […] Since the DPP and APT class of compounds share similarities, the APT library was tested in a competition binding assay with [^3H]MODAG-001 to determine its relative binding affinity and inhibition constant (Ki). The binding assay measured the displacement of the radioligand by increasing concentrations of competitor compounds, using fixed concentrations of fibrils and radioligand.
α-Syn fibrils were generated as the previously reported method.[30] The generation of Aβ1–42 fibril was adapted from Bagchi et al. and previously described by Kuebler et al.[16],[31] Synthetic lyophilized human Aβ1–42 peptide with >90% purity purchased from EMC Microcollections GmbH (Tuebingen, Germany) was dissolved in dimethyl sulfoxide (DMSO; 5 mg in 221.5 μL). Deionized water (4.1 mL) and 1 M Tris–HCl (111 μL, pH 7.6) were added to obtain a final monomeric concentration of 250 μM. Aggregation was induced by incubating the monomers in Eppendorf Thermomixer at 37 °C with shaking at 800 rpm for 72 h. Generated fibrils were sonicated for 3 min in a water bath (Elmasonic S 60H, Elma Schmidbauer GmbH, Singen, Germany). The final products were aliquoted, frozen on dry ice, and stored at −80 °C until use. Aβ1–42 fibril quality was evaluated via thioflavin (ThT) fluorescence and radioligand saturation assay with [^3H]PiB and [^3H]MODAG-001.
(§2) The dissociation constant (Kd) values of [^3H]MODAG–001 for human recombinant α-syn and synthetic human Aβ1–42 fibrils have previously been determined using saturation binding assays.[30] To determine the relative binding affinity (inhibition constant, Ki) of test compounds, competition binding assays of [^3H]MODAG-001 were performed. […] Human recombinant α-syn (50 nM) and synthetic human Aβ1–42 fibrils (1 μM) diluted in PBS (Gibco DPBS, no calcium, no magnesium, Thermo Fisher Scientific, Waltham, MA, USA) were incubated with increasing concentrations of test compounds (5 pM to 10 μM) against 1 nM [^3H]MODAG–001 in 30 mM Tris–HCl, 0.1% bovine serum albumin, and 0.05% Tween20 in 96-well micro test low-binding plates (ratiolab GmbH, Dreieich, Germany) to a total volume of 200 μL/well. Plates were incubated on a shaker (MaxQ 6000, Thermo Fisher Scientific Inc., Marietta, OH, USA) at 50 rpm for 2 h at 37 °C, covered by removable sealing tapes (PerkinElmer, Waltham, MA, USA). Vacuum filtration and read-out were performed as previously reported (Kuebler, Buss et al. 2021). Briefly, a glass fiber Filtermat B (PerkinElmer, Waltham, MA, USA) incubated with 0.5% polyethylenimine (PEI; Sigma-Aldrich Chemie GmbH, Taufkirchen, Germany) for 30 min at 4 °C before filter harvesting was used with a FilterMate Harvester (PerkinElmer, Waltham, MA, USA). Melt-on scintillator sheets (MeltiLex B/HS, PerkinElmer, Waltham, MA, USA) were molten onto dried filters. Accumulation of tritium was counted in a liquid scintillation Wallac MicroBeta TriLux counter (PerkinElmer, Waltham, MA, USA) at 2 min per well. Radioactivity in counts per minute for each concentration of the test compound was normalized to the radioactivity obtained in the absence of the test compound for conversion to percentage binding of the reference tracer. The resulting values were plotted against increasing concentrations of the test compounds. Data points were fitted using nonlinear regression analysis in GraphPad Prism (GraphPad Software, Inc., Version 8.4.0, La Jolla, CA, USA). The binding curve for [^3H]MODAG-001 saturation assay on α-syn fibrils is reported in the Supporting Information (Figure S6).

For data set [2], the target named is human recombinant α-syn fibrils (Homo sapiens, UniProt P37840). As to the kind of experiment: In vitro competition binding assay against [3H]MODAG-001 on α-syn fibrils. As to conditions: for Ki: competition against 1 nM [3H]MODAG-001, α-syn fibrils 50 nM, mean Ki ± SEM; for binding affinity to α-syn fibrils (in words): competition against [3H]MODAG-001; for selectivity for α-syn over Aβ: ratio of Ki Aβ to Ki α-syn fibrils. As to the method: as §1, §2

Data set [3] in a line: In vivo PET/MR imaging in healthy wild-type mice. Also noted: species or system mice (C57BL/6J). The settings on record: iv. The method, then:
To assess the pharmacokinetic profile of [^11C]APT-13 in vivo, wild-type mice (n = 3) were iv injected, and the organ distribution was assessed over 60 min with dynamic PET and anatomical MR imaging (Figure 7A). […] Tracer clearance was largest through the liver (SUV ≈ 5), and high uptake was also observed in the heart (SUV ≈ 6) and lungs (SUV ≈ 5). Uptake with fast clearance was also observed in the kidney, indicating renal excretion within the first few minutes (Figure 7C).
To evaluate the pharmacokinetics of [^11C]APT-13, PET and subsequent MRI scans were performed in healthy mice (female, 21 weeks old, C57BL/6J) to determine brain uptake and washout as well as organ uptake of the liver, lungs, heart, kidneys, and brain. Scans were performed in a small animal Inveon PET scanner (Siemens Healthcare, Erlangen, Germany) and a 7T small animal MRI scanner (Bruker BioSpin GmbH, Ettlingen, Germany). The mice (n = 3) were anesthetized with 1.5% isoflurane evaporated in 100% oxygen at a flow of 0.8 L/min, and a catheter was placed in the tail vein. The body temperature was kept at 37 °C by using a feedback temperature control unit for a heat pump that was connected to the PET bed. Five seconds after the start of the PET acquisition, 15.2 ± 0.5 MBq (410 ± 13 μCi) of [^11C]APT-13 was injected intravenously. PET data were acquired in a dynamic scan for 60 min plus an extra 13 min of transmission measurement with a ^57Co-source for attenuation correction. Subsequently, mice were placed in the same bed position in the MRI, and an anatomical scan was performed using a Turbo RARE T2 sequence. For analysis, the 60 min of acquired PET data were divided into 39-time frames (12 × 5, 6 × 10, 6 × 30, 5 × 60, and 10 × 300 s) and reconstructed using the OSEM3D reconstruction algorithm. The PET scans were coregistered to the whole-body MRI scan using PMOD software (version 4.203; PMOD Technologies, Zürich, Switzerland), and the volume of interest (VOI) of the different organs (liver, lungs, heart, kidney, and brain) were hand-drawn according to the anatomical localization. VOI were selected from the mouse brain atlas in PMOD, time activity curves were extracted, and SUV were calculated by normalizing to the injected activity and animal weight.

The nature of another data set: Serum stability assay. It is filed as in vitro ADME. As to conditions: 37 °C, within 90 min. The method, then:
Human serum was obtained from human male AB plasma, USA origin, sterile-filtered (Sigma-Aldrich, St. Louis, MO, USA).
The tracer formulation was mixed with an equal volume of human serum (250 μL) and incubated into a thermo-shaker at 37 °C, 300 rpm. At different time points (0, 15, 30, 60, and 90 min), 70 μL samples were drawn and mixed with ice-cold acetonitrile (1:1 dilution) and quickly vortexed. The dilute sample was incubated for 2 min on ice and centrifuged (MiniSpin centrifuge, Eppendorf) for 2 min at 13,400 rpm. An aliquot of the supernatant (120 μL) was analyzed by analytical radio-HPLC on a Luna C18(2), 5 μm, 250 × 4.6 mm column with 35% ACN in 0.1% aqueous TFA as mobile phase and at a flow rate of 1.5 mL/min in 10 min. The radiolabeled product was eluted at a retention time of 5.9 ± 0.2 min (Figure S5).

Data set [4] in a line: LogD determination (octanol/PBS). It is filed as physicochemical. The settings on record: n = 3. The method, then:
The logD was calculated experimentally by adding [^11C]APT-13 (1.5 MBq) to a 1.5 mL Eppendorf vial containing 500 μL of octanol (OCT) and 500 μL of PBS. The vial was vigorously vortexed and then, to achieve effective phase separation, centrifuged. Aliquots of 350 μL were collected from both OCT and PBS phases. The OCT sample was further washed with 350 μL of PBS; the phases mixture was shaken and centrifuged, and 200 μL of both phases were taken into new reaction tubes. The amount of radioactivity in each sample was quantified using a γ-counter. The log OCT/PBS values were calculated from the mean of n = 3 determinations (Table S3).
Table S3. Results from LogD determination assay.
C-11 CPM Description Mean value Mean value * dil

Values joined by “and” are separate entries in the source; they are usually repeats but may differ in a detail not shown here. Identical values can stand only once.

T1 sequence (P05067 672-713): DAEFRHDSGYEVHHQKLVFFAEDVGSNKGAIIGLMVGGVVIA

What is called Ki is the equilibrium dissociation constant of an inhibitor or competing ligand from its target. Turning to `COc1ccc(/C=C/c2cc(-c3nccs3)on2)cc1` [11b], the Ki at α-synuclein aggregates was 18.5 ± 9.2 nM; at Aβ1-42, 91.5 ± 58.7 nM.
As to `c1csc(-c2cc(-c3ccc4c(c3)OCO4)n[nH]2)n1` [APT-1, 2-(3-(Benzo[d][1,3]dioxol-5-yl)-1H-pyrazol-5-yl)thiazole], the Ki in data set [1] came to 561 nM. In addition, in data set [1] (competition against [3H]MODAG-001), the “binding to Aβ fibrils (in words)” value is “significantly lower binding”. In data set [2], the Ki worked out at 145 ± 46 nM and the “binding affinity to α-syn fibrils (in words)” value (“binding affinity” below) is “moderate affinity”.
For the compound `c1coc(-c2cc(-c3ccc4c(c3)OCO4)n[nH]2)n1` [APT-2, 2-(3-(Benzo[d][1,3]dioxol-5-yl)-1H-pyrazol-5-yl)oxazole], the Ki in data set [2] was 134 nM.
For `O=C(/C=C/c1ccc2c(c1)OCO2)c1nccs1` [APT-3, (E)-3-(Benzo[d][1,3]dioxol-5-yl)-1-(thiazol-2-yl)prop-2-en-1-one], the Ki in data set [2] was over 894 nM.
Regarding `Brc1csc(-c2cc(-c3ccc4c(c3)OCO4)n[nH]2)n1` [APT-4, 2-(3-(Benzo[d][1,3]dioxol-5-yl)-1H-pyrazol-5-yl)-4-bromothiazole], the Ki in data set [1] amounted to 1030 ± 562 nM. In addition, in data set [2], the Ki is 50 nM and 49.7 nM; the “selectivity for α-syn over Aβ” value was over 8 fold.
Take `CN(C)c1ccc(-c2cc(-c3nccs3)[nH]n2)cc1` [APT-5, N,N-Dimethyl-4-(5-(thiazol-2-yl)-1H-pyrazol-3-yl)aniline]: the Ki in data set [2] is 217 nM.
With `FCCNc1ccc(-c2cc(-c3nccs3)[nH]n2)cc1` [APT-6, N-(2-Fluoroethyl)-4-(5-(thiazol-2-yl)-1H-pyrazol-3-yl)aniline], in data set [2], the Ki stood at 184 nM and the “binding affinity” value was “modest affinity”.
Turning to `CNc1ccc(-c2cc(-c3nccs3)[nH]n2)cc1` [APT-7, N-Methyl-4-(5-(thiazol-2-yl)-1H-pyrazol-3-yl)aniline], the Ki was 381 ± 217 nM in data set [1]; 45 nM and 44.5 nM in data set [2]. In addition, in data set [2], the “selectivity for α-syn over Aβ” value is given as over 20 fold.
`Cn1nc(-c2ccc3c(c2)OCO3)cc1-c1nccs1` [APT-8, 2-(3-(Benzo[d][1,3]dioxol-5-yl)-1-methyl-1H-pyrazol-5-yl)thiazole]: the Ki in data set [2] is over 14200 nM.
On to `Brc1cnc(-c2cc(-c3ccc4c(c3)OCO4)n[nH]2)s1` [APT-9, 2-(3-(Benzo[d][1,3]dioxol-5-yl)-1H-pyrazol-5-yl)-5-bromothiazole], for which the Ki in data set [1] turned out to be 230 nM. Also, in data set [2], the Ki turned out to be 187 nM and the “binding affinity” value is given as “poor binding”.
As for `Fc1csc(-c2cc(-c3ccc4c(c3)OCO4)n[nH]2)n1` [APT-10, 2-(3-(Benzo[d][1,3]dioxol-5-yl)-1H-pyrazol-5-yl)-4-fluorothiazole], in data set [2], the Ki was determined as 818.4 ± 1.8 nM.
Consider `CNc1ccc(/C=C/C(=O)c2nccs2)cc1` [APT-11, (E)-3-(4-(Methylamino)phenyl)-1-(thiazol-2-yl)prop-2-en-1-one], for which the results for the Ki in data set [1] and in data set [2] were 377 nM and 1010 ± 34 nM, respectively.
Take `CNc1ccc(/C=C/C(=O)c2nc(Br)cs2)cc1` [APT-12, (E)-1-(4-Bromothiazol-2-yl)-3-(4-(methylamino)phenyl)prop-2-en-1-one]: the values for the Ki in data set [1] and in data set [2] were 587 nM and 198 ± 142 nM, respectively.
For `CNc1ccc(-c2cc(-c3nc(Br)cs3)[nH]n2)cc1` [APT-13, 4-(5-(4-Bromothiazol-2-yl)-1H-pyrazol-3-yl)-N-methylaniline] the same measures were 92.6 ± 48.8 nM and 27.8 ± 9.7 nM.
Take `Cn1nc(-c2ccc3c(c2)OCO3)cc1-c1nc(Br)cs1` [APT-14, 2-(3-(Benzo[d][1,3]dioxol-5-yl)-1-methyl-1H-pyrazol-5-yl)-4-bromothiazole]: the “binding affinity” value in data set [2] is “loss of competition”.
For the compound `O=C(/C=C/C=C/C=C/c1ccc([N+](=O)[O-])cc1)c1ccc(OCC(O)CF)cc1` (stereo not drawn) [FHCL-2], the Ki at α-synuclein aggregates was 3.4 ± 0.1 nM. Further, the “Ki Aβ1-42” value on Aβ1-42 is “no competition”.
For orientation: logD means lipophilicity at a set pH, counting ionised and neutral species. A high value points to a more lipophilic compound. Regarding `[11CH3]Nc1ccc(-c2cc(-c3nc(Br)cs3)[nH]n2)cc1` [[^11C]APT-13], in data set [3] (n = 3), the SUV heart entry is given as “≈ 6”, the SUV liver result is on record as “≈ 5” and the SUV lungs entry is recorded as “≈ 5”. Moreover, in data set [3] (n = 3, dynamic PET 60 min), the “peak SUV in brain” value was 1.94 ± 0.29. In “Serum stability assay”, the “stability in human serum” value was “did not show evidence of degradation”. Besides, the logD in data set [4] was determined as 3.16.
For `Fc1ccc(-c2csc(-c3nc(-c4cnc5c(c4)OCO5)cs3)n2)cn1` [d8], the Ki was 0.1 nM on α-synuclein aggregates and 386 nM on Aβ1-42.
